Tests used:
[1] = test system: Trypanosoma congolense IL1180; test: Viability of Trypanosoma congolense IL1180 cultured in vitro (FACS, microscopy); assay type: cell-based; details: for mortality induced by BPTI (natural mortality subtracted): 48 hours
Protocol: Before adding BPTI and for measurement times: 1.5 hours, 17 hours and 24 hours, the parasites (Trypanosoma congolense IL1180) are clearly visible; their form is as expected (fusiform), and they are mobile. However, the mortality becomes increasingly visible over time. The impact of BPTI on morphology is perceptible 17 hours (and thereafter) after adding BPTI to the culture. […] In order to analyze the effect of BPTI on parasite viability, flow cytometry measurements were made at different times (1.5 hours, 17 hours, 24 hours and 48 hours after adding 100 μM or 200 μM of BPTI for parasite concentrations of 5×10^6 parasites/ml and 10×10^6 parasites/ml). The results obtained are represented in graphs A and B in FIG. 7. There is a “natural” mortality of Trypanosoma congolense in vitro, due to the difficulty maintaining sanguicolous forms of Trypanosoma congolense in liquid culture. This mortality increases over time and reaches values of 49.1% and 47.1% under conditions using 5.10^6 parasites/ml and 10.10^6 parasites/ml, respectively. However, a trypanocidal action of BPTI may be observed on trypanosome cultures, a slight dose-dependent effect of BPTI on parasite viability may be recorded. The effect of BPTI is extremely significant and appears to be also time-dependent. […] The mortality induced by BPTI on a population of 5×10^6 trypanosomes (10×10^6 parasites/ml) under the same conditions is 49.6% and 48.8%, respectively (see graphs A and B in FIG. 8).

[2] = test system: "trypsin-like" (serine protease) in Trypanosoma congolense (Tc. IL1180) lysates; test: BAPNA degradation by Trypanosoma congolense (Tc. IL1180) lysates; assay type: biochemical; details: BPTI 3.125 mg/ml or 481.25 μM or 625 μg/well, BAPNA 0.315 mM
Protocol: (§1) The parasites were placed in rodent culture and purified on a DEAE cellulose column. The parasites were then counted, and lysed by means of 4 successive 1-minute passages in liquid nitrogen and in a water-bath at 37° C. The tests were conducted on three independent procedures in triplicate using […]. The method used for detecting “trypsin-like” (serine protease) consists of measuring, as a function of time, the initial degradation rate of a homogeneous substrate, N-benzoyl-ariginine-p-nitroaniline (BAPNA), under the effect of “trypsin-like” found in lysates in the presence of absence of BPTI. The appearance of the degradation product, p-nitroalinine (p-Na), which is yellow in colour, is measured by means of spectrophotometry at 405 nm. The enzyme activity calculation is performed according to the Beer-Lambert law.

[3] = test system: Leishmania donovani infantum (Ldi); test: Viability and growth of Leishmania donovani infantum (Ldi) cultured in vitro (FACS); assay type: cell-based; details: BPTI 50, 100, 200 μM
Protocol: The growth and viability of Leismania donovani infantum parasites were measured by FACS at 4, 12, 24, 48, 72, 144 and 168 hours of culture after addition of BPTI at concentrations of 50, 100 and 200 μM. The results are presented in graphs A and B in FIG. 10.
The effect of BPTI was tested for each time value with a non-parametric test (Kruskal-Wallis test).

[4] = test system: NO production by RAW 264.7 macrophage line cells; test: NO production inhibition by RAW 264.7 macrophage line (Griess assay); assay type: cell-based, mouse; details: LPS + IFNγ stimulated RAW 264.7 cells
Protocol: (§2) Two different vials of the J774.2 line were used at the 8th and 9th passages. The cells from these vials were placed in culture in parallel, and the tests were triplicated. The cells were first stimulated with Lipopolysaccharide (LPS, InvivoGen) at a concentration of 100 ng/ml and with mouse interferon gamma (IDNγ, AbD serotex) at a final concentration of 10 ng/ml and incubated in the absence (control) or in the presence of various concentrations of BPTI (range of 12.5 to 100 μM) for 15 hours at 37° C./5% CO2 in a complete medium containing DMEM glutamax (Gibco) supplemented with 10% foetal calf serum (FCS) and 1% penicillin/streptamycin. The quantity of NO produced was determined by means of a colorimetric assay according to the Griess principle (Pinelli et al., Vet. Parasitol., 2000, 92: 181-189). For each BPTI concentration, NO production inhibition percentage is calculated according to the following formula: […]
Two different vials of the RAW 264.7 line were used at the 10th and 11th passages. The cells from these vials were placed in culture in parallel, and the tests were triplicated and performed as described above.

[5] = test system: "trypsin-like" (serine protease) in Leishmania donovani infantum (Ldi) lysates; test: BAPNA degradation by Leishmania donovani infantum (Ldi) lysates; assay type: biochemical; details: BPTI 625 μg; lysate alone 2.893
Protocol: as §1
(§3) Leishmania (Ldi and Ldd8) were placed in culture in RMPI supplemented with 10% FCS, 1% penicillin/streptomycin and 1% Ultraglutamine and placed in an incubator) 37° C./5% CO2 for one week. The leishmania are counted and lysed according to the protocol defined for trypanosome lysis. The method for detecting and the method for calculating the enzyme activity were identical to those used for trypanosomes. The tests using Ldi and Ldd8 were conducted on three independent procedures in triplicate using […].

[6] = test system: "trypsin-like" (serine protease) in Leishmania donovani donovani (Ldd8) lysates; test: BAPNA degradation by Leishmania donovani donovani (Ldd8) lysates; assay type: biochemical; details: BPTI 625 μg; lysate alone 1.767
Protocol: as §1, §3

[7] = test system: NO production by J774.2 macrophage line cells; test: NO production inhibition by J774.2 macrophage line (Griess assay); assay type: cell-based, mouse; details: LPS + IFNγ stimulated J774.2 cells, 15 hours
Protocol: as §2

[8] = test system: NO production by bovine macrophages; test: NO production inhibition by bovine macrophages derived from circulating monocytes; assay type: cell-based; details: LPS + bovine IFNg
Protocol: as §2
Bovine monocytes were isolated from circulating monocytes. Two independent tests were performed and each of the tests was triplicated. The monocytes were stimulated with LPS at a concentration of 250 ng/ml and bovine IFNg at a final concentration of 10 ng/ml. The cells were then incubated in the absence ([…]) for 20 hours (test 1) and 24 hours (test 2) at 37° C./5% CO2 in IMDM complete medium containing IMDM supplemented with L-glutamine at […] final, gentamicin at 50 μg/ml final, 10% FCS and 5×10^−5 M b-mercaptoethanol.

Substance: aprotinin [BPTI]
- effect on parasite morphology (microscopic observation) ([1]; 17 hours and thereafter after adding BPTI to the culture): Spherical forms are observed
- mortality induced by BPTI (natural mortality subtracted) ([1]; BPTI 100 μM, 2.5×10^6 trypanosomes (5×10^6 parasites/ml)): 46%
- mortality induced by BPTI (natural mortality subtracted) ([1]; BPTI 100 μM, 5×10^6 trypanosomes (10×10^6 parasites/ml)): 49.6%
- mortality induced by BPTI (natural mortality subtracted) ([1]; BPTI 200 μM, 2.5×10^6 trypanosomes (5×10^6 parasites/ml)): 47.4%
- mortality induced by BPTI (natural mortality subtracted) ([1]; BPTI 200 μM, 5×10^6 trypanosomes (10×10^6 parasites/ml)): 48.8%
- increase of in vitro parasite mortality ([1]; summary statement referring to Example 2): 50%
- mean inhibition of lysate enzyme activity [2]: 44.6%
- lysate enzyme activity in the presence of BPTI ([2]; lysate alone 1.893): 1.048 (Standard deviation 0.073)
- effect on the viability of leishmania (Kruskal-Wallis test) ([3]; 72 hours, P-value=0.05): at the limit of significance
- effect on the viability of leishmania (Kruskal-Wallis test) ([3]; 144 hours, P-value=0.05): significant effect
- effect on the number of leishmania (growth, Kruskal-Wallis test) ([3]; 168 hours only, P-value=0.03): significant effect
- effect on the viability of leishmania (Kruskal-Wallis test) ([3]; 168 hours, P-value=0.03): significant effect
- effect on the viability of leishmania (Kruskal-Wallis test) ([3]; other observation times (4, 12, 24, 48 hours)): not significant
- NO production inhibition ([4]; BPTI 12.5 μM): NO inhibition was observed
- NO production inhibition ([4]; BPTI 25 μM): 0.2%
- NO production inhibition ([4]; BPTI 50 μM): 16.1%
- NO production inhibition ([4]; BPTI 100 μM): 47.6%
- lysate enzyme activity with BPTI [5]: 1.555
- lysate enzyme activity with BPTI [6]: 1.0893
- NO production inhibition ([7]; BPTI 12.5 μM): 1.7%
- NO production inhibition ([7]; BPTI 25 μM): 16.2%
- NO production inhibition ([7]; BPTI 50 μM): 30.1%
- NO production inhibition ([7]; BPTI 100 μM): 59.5%
- mean inhibition of NO production ([8]; Test 1, 20 hours, BPTI 12.5 μM): 8.4%
- mean inhibition of NO production ([8]; Test 1, 20 hours, BPTI 25 μM): 14.2%
- mean inhibition of NO production ([8]; Test 1, 20 hours, BPTI 50 μM): 32.6%
- mean inhibition of NO production ([8]; Test 1, 20 hours, BPTI 100 μM): 70.5%
- mean inhibition of NO production ([8]; Test 2, 24 hours, BPTI 6.25 μM): 12%
- mean inhibition of NO production ([8]; Test 2, 24 hours, BPTI 12.5 μM): 25.9%
- mean inhibition of NO production ([8]; Test 2, 24 hours, BPTI 25 μM): 62.5%
- mean inhibition of NO production ([8]; Test 2, 24 hours, BPTI 50 μM): 70%
- mean inhibition of NO production ([8]; Test 2, 24 hours, BPTI 100 μM): 60.2%

From patent US20120295844A1, “USE OF APROTININ FOR TREATING PARASITIC INFECTIONS AND PROGNOSING BOVINE TRYPANOTOLERANCE” (priority 2010, published 2012)
